Measurements published in patent US12403143B2, “Pharmaceutical composition for treating functional psychiatric disorders” (OBSCHESTVO S OGRANICHENNOI OTVETSTVENNOSTYU “VALENTEK”, priority 2016, dated 2025).
Like-named read-outs stand apart in the source and are kept apart here.

Assays:
D4.4 receptor = target: T1, D4.4 receptor (Homo sapiens, UniProt P21917); assay: D4 receptor functional antagonism, cAMP level by fluorescence; format: cell-based; details: ratio of binding constants
T1 sequence (P21917 1-419): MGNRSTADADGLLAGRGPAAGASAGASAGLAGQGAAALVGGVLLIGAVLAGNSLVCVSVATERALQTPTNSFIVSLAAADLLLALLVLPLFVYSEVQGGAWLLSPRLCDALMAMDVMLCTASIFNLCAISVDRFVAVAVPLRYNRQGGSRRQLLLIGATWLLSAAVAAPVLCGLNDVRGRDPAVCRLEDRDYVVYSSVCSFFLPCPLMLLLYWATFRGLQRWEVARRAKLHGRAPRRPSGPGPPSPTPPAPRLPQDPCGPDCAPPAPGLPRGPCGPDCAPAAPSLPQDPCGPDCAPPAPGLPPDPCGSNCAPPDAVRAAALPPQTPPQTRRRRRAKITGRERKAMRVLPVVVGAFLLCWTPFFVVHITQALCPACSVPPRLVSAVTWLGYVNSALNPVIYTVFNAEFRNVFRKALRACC
Procedure: (§1) Response for cells expressing D2 receptors was determined as the change in cell conductance caused by the redistribution of intracellular calcium. For D4 receptor, the response criterion was the level of the secondary messenger, cAMP, determined by fluorescence after lysis of the cell expressing the receptor.

[1] = Leucht et al., Lancet 2013; cited from earlier work
H1 receptor = H1 receptor (Homo sapiens, UniProt P35367); assay: H1 receptor functional activity, Fluo-4 NW Ca2+ fluorescence
Chain of H1 receptor (P35367 whole entry): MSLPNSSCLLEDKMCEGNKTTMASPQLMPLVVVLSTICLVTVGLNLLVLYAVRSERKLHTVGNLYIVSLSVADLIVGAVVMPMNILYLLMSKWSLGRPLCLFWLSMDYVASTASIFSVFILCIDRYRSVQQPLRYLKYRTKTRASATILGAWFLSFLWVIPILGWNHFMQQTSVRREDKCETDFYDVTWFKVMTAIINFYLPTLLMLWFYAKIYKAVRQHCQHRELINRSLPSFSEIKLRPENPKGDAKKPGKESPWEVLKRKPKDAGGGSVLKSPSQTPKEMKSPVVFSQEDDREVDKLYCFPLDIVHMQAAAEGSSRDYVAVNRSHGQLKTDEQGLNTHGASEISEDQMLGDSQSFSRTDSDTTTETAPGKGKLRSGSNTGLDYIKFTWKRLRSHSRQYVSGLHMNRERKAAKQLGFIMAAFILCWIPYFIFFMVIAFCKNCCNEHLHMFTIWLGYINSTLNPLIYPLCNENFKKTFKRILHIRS
Procedure: The functional activity against H1 receptor was determined according to the fluorescence of Fluo-4 NW indicator introduced into cells, induced by a change in Ca^2+ ion concentration in the cytosol.

5HT2A receptor = 5HT2A receptor (Homo sapiens, UniProt P28223); assay: 5HT2A receptor functional antagonism, cAMP level by fluorescence; format: cell-based
Chain of 5HT2A receptor (P28223 whole entry): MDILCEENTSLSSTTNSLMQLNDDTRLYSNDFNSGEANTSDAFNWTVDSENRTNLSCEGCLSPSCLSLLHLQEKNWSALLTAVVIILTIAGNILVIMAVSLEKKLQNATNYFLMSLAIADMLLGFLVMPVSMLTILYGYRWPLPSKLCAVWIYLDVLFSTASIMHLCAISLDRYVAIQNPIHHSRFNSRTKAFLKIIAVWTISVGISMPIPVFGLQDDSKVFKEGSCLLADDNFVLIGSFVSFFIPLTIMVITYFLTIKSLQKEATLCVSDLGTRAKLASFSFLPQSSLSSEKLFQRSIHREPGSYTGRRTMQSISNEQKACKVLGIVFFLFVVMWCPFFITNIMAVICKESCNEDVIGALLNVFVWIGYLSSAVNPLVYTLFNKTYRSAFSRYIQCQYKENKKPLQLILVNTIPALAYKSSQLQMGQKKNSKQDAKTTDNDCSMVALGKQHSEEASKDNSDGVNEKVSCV
Procedure: as §1, with “determined by” for “determined as”, “For 5HT2A” for “For D4”

muscarinic M4 receptor = target: T2, muscarinic M4 receptor (Homo sapiens, UniProt P08173); assay: M4 muscarinic receptor functional experiments, cAMP level; format: cell-based
T2 sequence (P08173 1-479): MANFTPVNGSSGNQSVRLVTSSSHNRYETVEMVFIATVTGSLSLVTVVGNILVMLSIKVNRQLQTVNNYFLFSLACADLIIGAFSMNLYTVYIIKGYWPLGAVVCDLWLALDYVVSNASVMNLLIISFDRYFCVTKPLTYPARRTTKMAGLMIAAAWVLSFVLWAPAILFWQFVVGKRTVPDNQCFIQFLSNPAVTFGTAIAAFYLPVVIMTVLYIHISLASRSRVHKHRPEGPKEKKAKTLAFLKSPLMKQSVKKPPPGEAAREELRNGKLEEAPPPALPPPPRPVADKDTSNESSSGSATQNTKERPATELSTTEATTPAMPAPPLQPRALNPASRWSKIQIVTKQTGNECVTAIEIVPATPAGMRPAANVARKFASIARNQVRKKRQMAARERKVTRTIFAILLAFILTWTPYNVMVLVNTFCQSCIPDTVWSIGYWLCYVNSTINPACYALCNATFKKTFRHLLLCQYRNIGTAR
Procedure: The side effect of M4 muscarinic receptor agonists is intense salivation (sialorrhea). […] Curves of response dependence on the concentration of the compound for the receptor were built; the response criterion was the level of the secondary messenger—cAMP, which is determined by fluorescence after cell lysis expressing the receptor.

M1 receptor = target: T3, M1 receptor (Homo sapiens, UniProt P11229); assay: M1 muscarinic receptor activation, Fluo-4 NW Ca2+ fluorescence; format: cell-based; details: FIG. 6
T3 sequence (P11229 1-460): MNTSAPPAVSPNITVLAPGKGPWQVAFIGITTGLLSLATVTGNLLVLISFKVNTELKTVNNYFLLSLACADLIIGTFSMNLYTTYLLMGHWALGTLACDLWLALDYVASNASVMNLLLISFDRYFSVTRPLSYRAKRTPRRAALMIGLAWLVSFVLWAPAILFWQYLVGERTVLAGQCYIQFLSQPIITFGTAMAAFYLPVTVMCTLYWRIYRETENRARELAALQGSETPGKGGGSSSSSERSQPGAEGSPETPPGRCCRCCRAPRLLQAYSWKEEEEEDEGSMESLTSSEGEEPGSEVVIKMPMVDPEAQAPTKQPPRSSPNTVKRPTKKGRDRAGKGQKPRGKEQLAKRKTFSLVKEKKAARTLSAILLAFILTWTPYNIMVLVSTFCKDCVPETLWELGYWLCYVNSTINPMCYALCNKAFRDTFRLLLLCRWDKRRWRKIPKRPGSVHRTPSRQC
Procedure: The activity was determined according to the fluorescence of Fluo-4 NW indicator introduced into cells, induced by a change in Ca^2+ ion concentration in the cytosol.

CF-1 mice = assay: Sedation: total distance travelled after oral administration; format: in vivo
Excerpt: The results of the in vitro experiments given in Example 4 have been confirmed by the studies of sedation.

rats = assay: Sub-chronic toxicity, blood composition / neutrophil kinetics; format: in vivo; details: intragastric 5 mg/kg daily for 28 days
Procedure: The neutrophil kinetics were studied within comparative tests of sub-chronic toxicity. Studies were conducted in rats upon intragastric administration of substances at a dose of 5 mg/kg. The test substances were administered daily for 28 days. Each experimental group composed of 10 animals of each sex.

[2] = Maximum tolerated dose by dose escalation; format: in vivo, miniature pigs; details: pig, in vivo, miniature pigs, dose escalation
Procedure: (§2) To assess the safety of halogen derivatives of clozapine, the maximum tolerated dose (MTD) for miniature pigs was determined.
(§3) Initially, the pharmaceutical composition was administered at a dose of 0.53 mg/kg for 7 days. Then, on the 8th day, the administered dose of the pharmaceutical composition was increased to 1 mg/kg. After that, the dose was increased by 0.5 mg/kg every 1st, 3rd and 5th days of the seven-day cycle until an observable intoxication was noted.

miniature pigs = assay: Maximum tolerated dose by dose escalation; format: in vivo; details: extrapolated from miniature pigs
Procedure: as §2, §3

mice = assay: Amphetamine-induced locomotion inhibition (ALI), model of bipolar disorder; format: in vivo
Excerpt: The ability of drugs to inhibit amphetamine-induced locomotor activity (amphetamine-induced locomotion inhibition, ALI) is a consequence of their blocking effect on dopamine receptors. Amphetamine causes a disruption of the reuptake of monoamine neurotransmitters and their accumulation in the intersynaptic space; blockade of dopamine receptors by antagonists neutralizes the excessive stimulation of dopamine signaling pathways. ALI is the basic test based on the dopamine model of bipolar disorder, and allows to evaluate the ability of drug candidates to bind to brain dopamine receptors in vivo.
[…]. After that, 3 mg/kg of d-amphetamine were administered intraperitoneally to the animals and the record of the activity was resumed. The distance (in cm) travelled by the animal in the first 60 minutes after administration of antipsychotic drugs and the distance travelled in the next hour after d-amphetamine administration were estimated.

[3] = Metabolism and tissue distribution of fluoroclozapine after single oral administration; details: rats, single oral 10 mg/kg fluoroclozapine
[4] = female, read-out: MTD (females)

| SMILES | increase of the risk of sedation [1] | Therapeutic window width (Kb, H1/Kb, 5HT2A) (H1 receptor) | effect on M1 receptors (M1 receptor) | Stab neutrophils (rats) | MTD [2, 4] | MTD ([2]; male, read-out: MTD (males)) | corresponding MTD for a human (miniature pigs) | further results |
| --- | --- | --- | --- | --- | --- | --- | --- | --- |
| OCCOCCN1CCN(C2=Nc3ccccc3Sc3ccccc32)CC1 [quetiapine] | 3.7 times |  |  |  |  |  |  | Therapeutic window width (Kb, D2/Kb, D4) (D4.4 receptor): 0.11 |
| Clc1ccc2c(c1)N=C(N1CCNCC1)c1ccccc1N2 [Desmethylclozapine, desmethylclozapine, reference compound] |  | 0.24 |  |  |  |  |  |  |
| Fc1cc2c(cc1Cl)N=C(N1CCNCC1)c1ccccc1N2 [Desmethylfluoroclozapine, 11-(piperazine-1-yl)-7-fluoro-8-chloro-5H-dibenzo[b,e][1,4]diazepine] |  |  | is an agonist, and causes a significant response in the therapeutic drug concentration window | 4.2 ± 0.4% |  |  |  | Kb (5HT2A receptor; binding constant determined from IC50, antagonism setup): 16 nM; Therapeutic window width (Kb, D2/Kb, 5HT2A) (5HT2A receptor; ratio of binding constants): 34; activating concentration, times higher than that of clozapine (muscarinic M4 receptor): 290 times; activating concentration, times higher than that of desmethylclozapine (muscarinic M4 receptor): 30 times; motion activity (CF-1 mice; CF-1 mice, oral 10 mg/kg): insignificant decrease in motion activity; Therapeutic window width (Kb, H1/Kb, 5HT2A) (H1 receptor; ratio of binding constants): 0.93 |
| CN1CCN(C2=Nc3cc(Cl)ccc3Nc3ccccc32)CC1 [Clozapine, clozapine, reference compound] | 8.8 times |  |  | 4.6 ± 0.7 % | 4.5 mg/kg | 3 mg/kg | 270 mg per day | total distance travelled / sedation (CF-1 mice; mouse, in vivo): significantly reduced; number of circulating neutrophils in the blood versus control group (rats): significant increase |
| CN1CCN(C2=Nc3cc(Cl)c(F)cc3Nc3ccccc32)CC1 [Fluoroclozapine, 11-(4-methylpiperazine-1-yl)-7-fluoro-8-chloro-5H-dibenzo[b,e][1,4] diazepine] |  | 0.63 | virtually no effect on M1 receptors | 3.2 ± 0.4% | 6 mg/kg | 5 mg/kg | 450 mg per day | minimum effective dose designed for patient (mice; depending on patient's body weight): 20-35 mg per day; minimum effective dose designed for patient (mice; extrapolated from ALI experiment): 0.5 mg/kg; concentrations for inhibition of H1 compared with inhibition of 5HT2A (times lower) (H1 receptor): approximately equal concentrations; concentrations of fluoroclozapine and its metabolite desmethylfluoroclozapine in the brain [3]: comparable; metabolism [3]: metabolized to desmethylfluoroclozapine |
